{"source": "patent US9676793B2", "about": "“Co-crystals of 5-amino-2-oxothiazolo[4,5-d]pyrimidin-3(2H)-yl-5-hydroxymethyl tetrahydrofuran-3-yl acetate and methods for preparing and using the same” (Hoffmann-La Roche Inc., priority 2014, dated 2017)", "key": {"[1]": {"assay": "Solid state stability by UPLC", "type": "physicochemical", "conditions": "solid", "experimental": "Solid state stability studies were performed by storing a test sample of the co-crystal at different temperatures and under conditions of different relative humidity for a period of one to three months. Stability was judged by Ultra performance liquid chromatography (UPLC) analysis of the test co-crystals. Percent degradation of API in a test sample of the co-crystal was calculated as follows: Co-crystals in accordance with the invention are fairly stable across the temperature range used in the study. […] Without ascribing to a particular theory, crystallinity may contribute to the stability of inventive co-crystals. Table 7 illustrates data from a stability of a Formula I glutaric acid co-crystal in accordance with the invention across a range of temperatures and in the presence of 75% relative humidity at 40° C. […] Further supporting the hypothesis that crystallinity contributes to increased stability was provided by comparing the amorphous form of the free base of a Formula I compound to the crystalline form of a Formula I compound as illustrated in Table 8."}, "[2]": {"assay": "Pharmacokinetic study after oral administration", "type": "in vivo, cynomolgus monkeys", "conditions": "cynomolgus monkeys, oral, 10 mg/kg", "description": "Studies were undertaken to compare the pharmacokinetics (PK) of the glutaric acid co-crystal to the PK of the tosylate salt of the Formula I compound. A 3% solution of Blanose 7LF PM without preservatives was used to formulate the glutaric acid co-crystal and tosylate salt. Results from a pharmacokinetic study in cynomolgus monkeys indicate that the plasma concentration of the glutaric acid co-crystal was greater than the corresponding tosylate salt following oral administration of each compound.\nIn this study, each compound was administered orally at a dose of 10 mg/kg to cynomolgus monkeys. Following administration, blood was obtained from each test subject at 0 min, 60 min, 120 min and 180 minutes. After separating the plasma from whole blood an aliquot to each plasma sample was denature by the addition of 70% ethanol. The denatured protein was pelleted by centrifugation and the supernatant was collected and dried using a stream of dry nitrogen gas. The pellet thus obtained was re-constituted in water containing 0.1% formic acid and the re-constituted mixture was analyzed by UPLC using a HSS-T3 (high strength silica) column or an YMC TriartC-18 column. Gradient elution using a mixture of water containing 0.1% HCOOH (mobile phase-A) and acetonitrile containing 0.1% HCOOH (mobile phase-B) was employed for analysis of the pharmacokinetic (PK) samples."}, "[3]": {"assay": "Solubility and solution stability in buffers by UPLC", "type": "physicochemical", "conditions": "thermodynamic from solid, read-out: solubility: free-base form of the Formula I compound present per milliliter of buffer solution", "description": "Studies have shown that the co-crystals were soluble in water and buffered solvents.\nUnlike the tosylate salt, no genotoxic by-products are formed in solutions of the inventive co-crystals."}, "[4]": {"test_system": "HBV", "assay": "microbe, parasite or virus in culture", "conditions": "cultured HepaRG cells", "experimental": "Direct inhibition of viral replication was evaluated by monitoring the levels of secreted HBV DNA and the levels of HBV surface antigen (HBsAg) in cultures containing HBV infected HepaRG cells.\nAfter three days incubation, the combined medium was replaced with differentiation medium and the cells were maintained in the differentiation medium for an additional 2 to 4 weeks. The differentiation medium was renewed every 2 to 3 days throughout the incubation period. Differentiated HepaRG cells (HepaRGd) display hepatocyte-like cell islands surrounded by monolayer of biliary-like cells. Prior to HBV infection and compound treatment, HepaRGd cells were seeded into collagen I coated 96-well plates (Gibco, Cat# A11428-03) at 50,000 to 60,000 cells per well. Cells were allowed to recover their differentiated phenotype in 96-well plates for at least 1 week after plating prior to HBV infection.\nHBV inoculum was collected from HepG2.2.15 cultured cells, a cell line that supports HBV (genotype D, strain ayw) replication and virion secretion as disclosed in Sells M A., et al., PNAS, 84(4): 1005-1009. HepG2.2.15 cells were maintained in DMEM+GlutaMAX-I (Invitrogen) containing 1× Pen/Strep (Invitrogen), 10% FBS, and 0.25 mg/ml G-418 (Invitrogen) using hyperflasks (Corning) pre-coated with collagen I (BD Biosciences). Upon reaching confluency, HepG2.2.15 culture media was replaced with DMEM+GlutaMAX-I containing 1× Pen-Strep, 2.5% FBS, and 1% DMSO for 3 days and then replaced with DMEM+GlutaMAX-I containing 1× Pen-Strep and 1% DMSO. The 1% DMSO containing media was collected every 3 to 4 days over a two week period and HBV infectious virions and subviral particles were pelleted by ultracentrifugation through a 20% sucrose cushion in a Ti 45 Beckman rotor at 45,000 rpm for 3 hours at 4° C. The pellets were resuspended in WEM at a concentration of 10^8-10^9 genome equivalents (GE) per ml, determined by real time PCR as described below using a genotype D HBV containing plasmid DNA as an internal standard. To evaluate the infectivity of the inoculum, HepaRGd cells in 96-well plates were infected in differentiation medium containing 50 to 200 GE/cell and 4% PEG 8000 (PolyEthylene Glycol 8000, Sigma, Cat# P5413-500G) for 16 hr at 37° C. At the end of the infection, HBV inoculum was removed and cells were washed 3 times with differentiation medium. Differentiation medium was replenished every 2 to 3 days and HBV replication was monitored by measuring secreted HBV DNA, hepatitis B surface (HBsAg) and/or e (HBeAg) antigens.\nHBsAg was detected from 50 μL of HBV infected HepaRG supernatants using the HBsAg chemiluminescence immunoassay (CLIA) kit following instructions as recommended by the manufacturer (Autobio Diagnostics Co., Zhengzhou, China). HBV DNA was extracted from 50 μL of HBV infected HepaRGd supernatants using the MagNA Pure 96 DNA and Viral NA Small Volume Kit (Roche, Cat#05 467 497 001). […] All PCR reactions were performed using the ViiA7 Real Time PCR system (Life Technologies).\nBoth direct and indirect inhibitory activity of HBV replication was measured. […] Aliquots of these reagents were added to independent wells of a 96-well culture plate containing HBV infected HepaRGd cells on day 4 post infection. The final concentration of DMSO in each well was 2%. The HepaRGd cells used in the inhibition study were maintained in differentiation media containing 2% DMSO."}}, "note": "Read-outs that look alike come from different tables or passages of the source. Marks after values point to notes of the source that are not given here.", "data": [{"smiles": "CC(=O)O[C@@H]1C[C@@H](CO)O[C@H]1n1c(=O)sc2cnc(N)nc21", "note": "[glutaric acid co-crystal, 5-amino-3-(2′-O-acetyl-3′-deoxy-β-D-ribofuranosyl)-3H-thiazolo[4,5]pyrimidine-2-one]", "values": [{"measurement": "% Area Formula I", "setting": "[1]; 1 month, 2-8° C.", "result": 99.02, "unit": "% Area"}, {"measurement": "% degradation", "setting": "[1]; 1 month, 2-8° C.", "result": "−0.08", "unit": "%"}, {"measurement": "% Area Formula I", "setting": "[1]; 1 month, 40° C.", "result": 99.05, "unit": "% Area"}, {"measurement": "% degradation", "setting": "[1]; 1 month, 40° C.", "result": "−0.11", "unit": "%"}, {"measurement": "% Area Formula I", "setting": "[1]; 1 month, 40° C./75% r.h.", "result": 99.14, "unit": "% Area"}, {"measurement": "% degradation", "setting": "[1]; 1 month, 40° C./75% r.h.", "result": "−0.2", "unit": "%"}, {"measurement": "% Area Formula I", "setting": "[1]; 1 month, 60° C.", "result": 99.01, "unit": "% Area"}, {"measurement": "% degradation", "setting": "[1]; 1 month, 60° C.", "result": "−0.07", "unit": "%"}, {"measurement": "% Area Formula I", "setting": "[1]; 1 month, RT", "result": 98.9, "unit": "% Area"}, {"measurement": "% degradation", "setting": "[1]; 1 month, RT", "result": 0.04, "unit": "%"}, {"measurement": "% Area Formula I", "setting": "[1]; 2 months, 2-8° C., reference for 2 month stability", "result": "99.32** % Area"}, {"measurement": "% Area Formula I", "setting": "[1]; 2 months, 40° C.", "result": 99.35, "unit": "% Area"}, {"measurement": "% degradation", "setting": "[1]; 2 months, 40° C.", "result": "−0.04", "unit": "%"}, {"measurement": "% Area Formula I", "setting": "[1]; 2 months, 40° C./75% r.h.", "result": 99.34, "unit": "% Area"}, {"measurement": "% degradation", "setting": "[1]; 2 months, 40° C./75% r.h.", "result": "−0.03", "unit": "%"}, {"measurement": "% Area Formula I", "setting": "[1]; 2 months, 60° C.", "result": 99.56, "unit": "% Area"}, {"measurement": "% degradation", "setting": "[1]; 2 months, 60° C.", "result": "−0.25", "unit": "%"}, {"measurement": "% Area Formula I", "setting": "[1]; 2 months, RT", "result": 99.22, "unit": "% Area"}, {"measurement": "% degradation", "setting": "[1]; 2 months, RT", "result": "−0.10", "unit": "%"}, {"measurement": "T0 % Area Formula I", "setting": "[1]; T0, reference for 1 month stability", "result": "98.94* % Area"}, {"measurement": "plasma concentration of the de-acetylated form of the Formula I compound compared to tosylate salt", "setting": "[2]", "result": "about two-fold"}, {"measurement": "solubility", "setting": "[3]; aqueous buffer, pH 4.0 buffer", "result": "~8", "unit": "mg/mL"}, {"measurement": "solubility", "setting": "[3]; buffer solution, aqueous buffer, pH 7.0 buffered solution", "result": "~22", "unit": "mg/mL"}, {"measurement": "solubility", "setting": "[3]; buffer solution, simulated gastric fluid, pH 1.0 buffered solution", "result": "> 60", "unit": "mg/mL"}, {"measurement": "direct inhibition of HBV viral replication", "setting": "[4]", "result": "did not inhibit viral replication"}]}]}
